Entries after “also recorded” stand apart in the source; their conditions may differ.
Columns and labels:
[1] = in vivo; cited from earlier work
neurotoxic injury = conditions: in vivo; cited from earlier work
[2] = mass spectrophotometry; cited from earlier work
[3] = mass spectrophotometry; cited from earlier work; remark: listed apart in the source
Heliocobacter pylori = conditions: in vivo; cited from earlier work
[4] = cited from earlier work
[5] = mass spectrophotometry; cited from earlier work; remark: listed apart in the source
[6] = Solubility in water / aqueous solutions; assay type: physicochemical; conditions: water / aqueous solutions for NMR testing
Protocol: (§1) The mixture was analyzed by ^1 H NMR.
(§2) Three different solutions were prepared and their ^1 H NMR spectra were recorded in a DRX 400 MHz spectrophotometer at 20° C. Solution a) contained free vitamin B12 (hydroxycobalamin) in a concentration of 2.6 mM.

[7] = tested on: vitamin B12 ([^57 Co]-cyanocobalamine) metabolism; experiment: Influence of clioquinol on vitamin B12 in vivo: [57Co]-cyanocobalamine radioactivity in dissected tissues; parameters: species or system mice
Protocol: After three days, all of the mice were injected with [^57 Co]-cyanocobalamine. After two days, the animals were sacrificed, and the brain, liver and kidney were dissected and counted in a gamma-counter as thousand cpm/g tissue (wet weight)±SEM. The radioactivities in each of the groups are stated in Table 1 below: […]

[8] = monkeys, microautoradiographic techniques; terminal axodendritic boutons of the mossy fibres; cited from earlier work
[9] = mass spectrophotometry; cited from earlier work; remark: listed apart in the source
[10] = mass spectrophotometry; cited from earlier work; remark: listed apart in the source
[11] = unconjugated clioquinol, injected intravenously; crosses the blood-brain-barrier; cited from earlier work
[12] = 1H NMR interaction of vitamin B12 with clioquinol glucuronide; assay type: binding
Protocol: FIG. 1 depicts the NMR spectra of three solutions. Solution a contained vitamin B12 (hydroxycobalamin), at a concentration of 2.6 mM.
as §1, §2

## Oc1c(I)cc(Cl)c2cccnc12 [Clioquinol, 5-chloro-7-iodo-8 hydroxyquinoline]
[1]
  excretion: excreted through the kidneys as glucuronide or sulfate derivatives; also recorded: excreted through the kidneys as glucuronide derivatives
Neurotoxic injury
  effect in the treatment of neurotoxic injury: effective
[2]
  coordination number for Ni(II): 2
[3]
  coordination number for Zn(II): 2
Heliocobacter pylori
  effect in the treatment of Heliocobacter pylori: effective
[4]
  concentration in areas of the brain such as the hippocampus, in words: high
[5]
  coordination number for Cu(II): 2
[6]
  solubility in water: cannot be dissolved in aqueous solutions
[7]; brain, clioquinol 50 mg/kg/day, [57Co]-cyanocobalamine after three days, sacrificed after two days, ±SEM, control 9.4 ± 0.9
  radioactivity, Brain: 8.4 ± 1.5 thousand cpm/g tissue (wet wei
[7]; kidney, versus control
  amount of vitamin B12 trapped in the kidneys, in words: decreased in the kidney; also recorded: A reduction in the amount of vitamin B12 trapped in the kidneys
[7]; kidney, clioquinol 50 mg/kg/day, [57Co]-cyanocobalamine after three days, sacrificed after two days, ±SEM, control 895 ± 207
  radioactivity, Kidney: 252 ± 61 thousand cpm/g tissue (wet wei
[7]; liver, clioquinol 50 mg/kg/day, [57Co]-cyanocobalamine after three days, sacrificed after two days, ±SEM, control 97 ± 8
  radioactivity, Liver: 85 ± 21 thousand cpm/g tissue (wet wei
[8]
  zinc chelates in the hippocampus: form zinc chelates in the hippocampus
[9]
  coordination number for Fe(III): 3
[10]
  coordination number for Co(II): 2
[11]
  penetration into the nervous system: extremely rapid penetration into the nervous system

## COC(=O)[C@H]1OC(Oc2c(I)cc(Cl)c3cccnc23)[C@H](OC(C)=O)[C@@H](OC(C)=O)[C@@H]1OC(C)=O (stereo partly shown) [clioquinol glucuronide, methyl(5-chloro-7-iodo-quinolyl-2',3',4'-tri-O-acetyl-glycopyranosid)uronate]
[6]
  solubility in water: soluble in water
[12]; aromatic region, benzimidazole moiety (vitamin B12), quinoline moiety (clioquinol glucuronide)
  shift of resonances in the mixture: the same is observed for two resonances of the clioquinol glucuronide
[12]; buffered water pH 6.5, 20° C, 2.6 mM vitamin B12 + 10 mM clioquinol glucuronide
  interaction between clioquinol glucuronide and vitamin B12: hydrophobic interaction between clioquinol glucuronide and vitamin B12; also recorded: vitamin B12 binds to clioquinol glucuronide
